In ChEMBL document CHEMBL1201862, “PubChem BioAssay data set” (2004):
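Step 1: Grow cells in 96-well plates. Step 2: Expose to compound for 48 hours at 5 concentrations. Step 3: Interpolate endpoints linearly; if unreached, use highest concentration. At the GI50, growth is halved.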 Activity calls are given as the source filed them. No stated cut-off is given here; in the data, active = GI50 up to about 1.1 µM and inactive = higher.

Experiments:
Experiment in all cases: NCI tumour cell line growth inhibition, 48 h
[1] = test system: 786-0
[2] = test system: A498
[3] = test system: A549
[4] = test system: ACHN
[5] = test system: BT-549
[6] = test system: CAKI-1
[7] = test system: CCRF-CEM
[8] = test system: COLO 205
[9] = test system: DU-145
[10] = test system: EKVX
[11] = test system: HCC 2998
[12] = test system: HCT-116
[13] = test system: HCT-15
[14] = test system: HL-60
[15] = test system: HOP-62
[16] = test system: HOP-92
[17] = test system: HT-29
[18] = test system: Hs-578T
[19] = test system: IGROV-1
[20] = test system: K562
[21] = test system: LOX IMVI
[22] = test system: M14
[23] = test system: MCF7
[24] = test system: MDA-MB-231
[25] = test system: MDA-MB-435
[26] = test system: MDA-N
[27] = test system: MOLT-4
[28] = test system: Malme-3M
[29] = test system: NCI-H226
[30] = test system: NCI-H23
[31] = test system: NCI-H460
[32] = test system: NCI-H522
[33] = test system: NCI/ADR-RES
[34] = test system: OVCAR-3
[35] = test system: OVCAR-4
[36] = test system: OVCAR-8
[37] = test system: PC-3
[38] = test system: RPMI-8226
[39] = test system: RXF 393
[40] = test system: SF-268
[41] = test system: SF-295
[42] = test system: SF-539
[43] = test system: SK-MEL-28
[44] = test system: SK-MEL-5
[45] = test system: SK-OV-3
[46] = test system: SN12C
[47] = test system: SNB-19
[48] = test system: SNB-75
[49] = test system: SR
[50] = test system: SW-620
[51] = test system: T47D
[52] = test system: TK-10
[53] = test system: U-251
[54] = test system: UACC-62
[55] = test system: UO-31
[56] = test system: KM12
[57] = test system: OVCAR-5
[58] = test system: SK-MEL-2
[59] = test system: UACC-257

COC(=O)/C(=C\c1cn(C(C)=O)c2ccccc12)P(=O)(OC)OC
GI50 [1]: 17.6 µM (inactive)
GI50 [2]: 17.3 µM (inactive)
GI50 [3]: 16.4 µM (inactive)
GI50 [4]: 11.8 µM (inactive)
GI50 [5]: 15.8 µM (inactive)
GI50 [6]: 12.6 µM (inactive)
GI50 [7]: 14.6 µM (inactive)
GI50 [8]: 16.8 µM (inactive)
GI50 [9]: 13.4 µM (inactive)
GI50 [10]: 17 µM (inactive)
GI50 [11]: 16.8 µM (inactive)
GI50 [12]: 13.9 µM (inactive)
GI50 [13]: 14.5 µM
GI50 [14]: 78.5 µM (inactive)
GI50 [15]: 14.9 µM (inactive)
GI50 [16]: 16.6 µM (inactive)
GI50 [17]: 16.1 µM (inactive)
GI50 [18]: 27 µM (inactive)
GI50 [19]: 13.3 µM (inactive)
GI50 [20]: 25.1 µM (inactive)
GI50 [21]: 5.55 µM (inactive)
GI50 [22]: 15.2 µM (inactive)
GI50 [23]: 13.6 µM (inactive)
GI50 [24]: 11.7 µM (inactive)
GI50 [25]: 21.2 µM (inactive)
GI50 [26]: 15.1 µM (inactive)
GI50 [27]: 34.8 µM (inactive)
GI50 [28]: 16.7 µM (inactive)
GI50 [29]: 38.4 µM (inactive)
GI50 [30]: 14.8 µM (inactive)
GI50 [31]: 15 µM (inactive)
GI50 [32]: 11.2 µM (inactive)
GI50 [33]: 23.8 µM (inactive)
GI50 [34]: 17.1 µM (inactive)
GI50 [35]: 14.6 µM (inactive)
GI50 [36]: 22.5 µM (inactive)
GI50 [37]: 16.2 µM (inactive)
GI50 [38]: 17.1 µM (inactive)
GI50 [39]: 16.7 µM (inactive)
GI50 [40]: 22.4 µM (inactive)
GI50 [41]: 14.9 µM (inactive)
GI50 [42]: 16 µM (inactive)
GI50 [43]: 24.1 µM (inactive)
GI50 [44]: 13.4 µM (inactive)
GI50 [45]: 19 µM (inactive)
GI50 [46]: 14.8 µM (inactive)
GI50 [47]: 18.1 µM (inactive)
GI50 [48]: 12 µM (inactive)
GI50 [49]: > 100 µM (inactive)
GI50 [50]: 18.5 µM (inactive)
GI50 [51]: 13.7 µM (inactive)
GI50 [52]: 20.8 µM (inactive)
GI50 [53]: 15.8 µM (inactive)
GI50 [54]: 11.5 µM (inactive)
GI50 [55]: 13.1 µM (inactive)

Oc1nc(S)nc(SCc2c(Cl)c(Cl)c(Cl)c(Cl)c2Cl)n1
GI50 [1]: 42.7 µM (inactive)
GI50 [2]: > 59.4 µM (inactive)
GI50 [3]: > 96.4 µM (inactive)
GI50 [4]: 77.1 µM (inactive)
GI50 [5]: > 80.2 µM (inactive)
GI50 [6]: 30.6 µM (inactive)
GI50 [7]: 15.8 µM (inactive)
GI50 [8]: 18.2 µM (inactive)
GI50 [9]: 45.9 µM (inactive)
GI50 [10]: 40.9 µM (inactive)
GI50 [12]: 39.8 µM (inactive)
GI50 [13]: 49 µM
GI50 [14]: 20.1 µM (inactive)
GI50 [15]: 38.7 µM (inactive)
GI50 [16]: 77.8 µM (inactive)
GI50 [17]: 28.1 µM (inactive)
GI50 [18]: > 59.2 µM (inactive)
GI50 [19]: 69 µM (inactive)
GI50 [20]: 15.3 µM (inactive)
GI50 [56]: 89.9 µM (inactive)
GI50 [21]: > 63.1 µM (inactive)
GI50 [22]: 60.8 µM (inactive)
GI50 [23]: 37.2 µM (inactive)
GI50 [24]: > 100 µM (inactive)
GI50 [25]: 36.9 µM (inactive)
GI50 [26]: 47.4 µM (inactive)
GI50 [27]: 0.809 µM (active)
GI50 [28]: 27.5 µM (inactive)
GI50 [29]: > 69.8 µM (inactive)
GI50 [30]: 55.7 µM (inactive)
GI50 [31]: 58.2 µM (inactive)
GI50 [32]: 18.2 µM (inactive)
GI50 [33]: > 58.5 µM (inactive)
GI50 [34]: 15.3 µM (inactive)
GI50 [35]: 21.9 µM (inactive)
GI50 [57]: 98.2 µM (inactive)
GI50 [36]: 62.7 µM (inactive)
GI50 [37]: > 67.9 µM (inactive)
GI50 [38]: 7.18 µM (inactive)
GI50 [39]: 16.9 µM (inactive)
GI50 [40]: 40 µM (inactive)
GI50 [41]: > 100 µM (inactive)
GI50 [42]: 46.2 µM (inactive)
GI50 [43]: 31.1 µM (inactive)
GI50 [58]: 52.5 µM (inactive)
GI50 [44]: > 84.1 µM (inactive)
GI50 [45]: > 96.4 µM (inactive)
GI50 [46]: 49.5 µM (inactive)
GI50 [47]: > 100 µM (inactive)
GI50 [48]: > 100 µM (inactive)
GI50 [49]: 0.184 µM (active)
GI50 [50]: 32.4 µM (inactive)
GI50 [51]: 27.9 µM (inactive)
GI50 [52]: > 80.2 µM (inactive)
GI50 [53]: > 100 µM (inactive)
GI50 [59]: > 88.3 µM (inactive)
GI50 [54]: > 92.7 µM (inactive)
GI50 [55]: 30 µM (inactive)

CN(C)CCOc1ccc2[nH]c(C(=O)N3CC(CCl)c4ccc(N)cc43)cc2c1 (stereo unspecified)
GI50 [1]: 0.0687 µM (active)
GI50 [2]: 0.208 µM (active)
GI50 [3]: 0.0667 µM (active)
GI50 [4]: 0.0281 µM (active)
GI50 [5]: 0.192 µM (active)
GI50 [6]: 0.0489 µM (active)
GI50 [7]: 0.0381 µM (active)
GI50 [8]: 0.083 µM (active)
GI50 [9]: 0.0323 µM (active)
GI50 [10]: 0.231 µM (active)
GI50 [11]: 0.0535 µM (active)
GI50 [12]: 0.0354 µM (active)
GI50 [13]: 0.102 µM
GI50 [15]: 0.0356 µM (active)
GI50 [16]: 0.36 µM (active)
GI50 [17]: < 0.0358 µM (active)
GI50 [18]: 0.176 µM (active)
GI50 [19]: 0.0395 µM (active)
GI50 [20]: 0.0533 µM (active)
GI50 [56]: 0.0733 µM (active)
GI50 [21]: 0.0601 µM (active)
GI50 [22]: 0.145 µM (active)
GI50 [23]: 0.0266 µM (active)
GI50 [24]: 1.39 µM (inactive)
GI50 [25]: 0.0871 µM (active)
GI50 [26]: 0.143 µM (active)
GI50 [27]: < 0.01 µM (active)
GI50 [28]: 0.164 µM (active)
GI50 [29]: 0.0776 µM (active)
GI50 [30]: 0.0562 µM (active)
GI50 [31]: 0.0273 µM (active)
GI50 [32]: 0.0154 µM (active)
GI50 [33]: 0.0933 µM (active)
GI50 [34]: 0.0631 µM (active)
GI50 [35]: 0.0703 µM (active)
GI50 [57]: 0.141 µM (active)
GI50 [36]: 0.0912 µM (active)
GI50 [37]: 0.0459 µM (active)
GI50 [38]: 0.228 µM (active)
GI50 [39]: 0.0182 µM (active)
GI50 [40]: 0.0375 µM (active)
GI50 [41]: 0.0885 µM (active)
GI50 [42]: 0.385 µM (active)
GI50 [43]: 0.126 µM (active)
GI50 [58]: 0.0653 µM (active)
GI50 [44]: 0.0451 µM (active)
GI50 [45]: 1.94 µM (inactive)
GI50 [46]: 0.108 µM (active)
GI50 [47]: 0.258 µM (active)
GI50 [48]: 0.112 µM (active)
GI50 [49]: < 0.0179 µM (active)
GI50 [50]: 0.121 µM (active)
GI50 [51]: 0.0424 µM (active)
GI50 [52]: 0.29 µM (active)
GI50 [53]: 0.0912 µM (active)
GI50 [59]: 0.151 µM (active)
GI50 [54]: 0.0753 µM (active)
GI50 [55]: 0.065 µM (active)
